# Test results taken from patent US10807958B2, “1,4-bis(3-aminopropyl)piperazine derivative and its use” (INSERM (Institut National de la Sante et de la Recherche …, priority 2015, dated 2020).
# Columns and labels:
# [1] = test system: Neuroblastoma SKNSH-SY5Y cells expressing the human Tau isoform 412; test: 2D gel electrophoresis of Tau isovariants in treated cells; format: cell-based; conditions: 10 μM, vs control conditions, FIG. 2
# Source text: (§1) Pan-Tau and phospho-dependent Tau antibodies included Tau-Nter (M19G, 1/10 000, Sergeant et al., 1999), Tau-Cter (1/10 000, Sergeant et al., 1999, Le Freche et al., 2012), Tau-1 (1/5000, Merck Millipore), S199P (directed against the phospho-serine 199, 1/4000, Sergeant et al., 1999), Tau-Phospho S396 (directed against the phosphor-serine 396, 1/10000, Lifetechnologies), Tau-Phospho 404 (1/10 000, Lifetechnologies), 422 (clone 2H9, a homemade monoclonal antibody developed against a phospho-peptide containing the phosphorylated serine 422 residue of Tau, numbering according to the longest human brain Tau-441 isoform), AT8 (1/1000, Thermo Scientific), AT270 (1/2000, Thermo Scientific), AT100 (1/1000, Thermo Scientific). Neuron specific enolase (1/10 000), β-actin (1/5000) and β-tubulin (1/10 000) were from Sigma-Aldrich.
# Human neuroblastoma cell line SKNSH-SY5Y cells expressing the human Tau isoform 412 (with the exon 2 and 10 encoding sequences) (or SY5Y-Tau46) was as previously described in Bretteville et al., 2009. […]
# (§2) The effect of the compound of Formula I on Tau phosphorylation was analyzed in vitro and in vivo. […]
# (§3) Expression and total phosphorylation was assessed by 1D and 2D gel electrophoresis using phospho-dependent and pan-Tau antibodies (FIGS. 1 and 2). […]
# [2] = test system: Neuroblastoma SKNSH-SY5Y cells expressing the human Tau isoform 412; test: 1D gel electrophoresis / Western blot of Tau expression and phosphorylation in treated cells; format: cell-based; conditions: 10 μM, vs induced but non-treated condition, FIG. 1
# Source text: as §1
# Human neuroblastoma cell line SKNSH-SY5Y cells expressing the human Tau isoform 412 (with the exon 2 and 10 encoding sequences) (or SY5Y-Tau46) was as previously described in Bretteville et al., 2009.
# Neuroblastoma SKNSH-SY5Y cells expressing the human Tau isoform 412 (with the exon 2 and 10 encoding sequences) were treated with 10 μM of the hydrochloride salt of N-[3-(4-{3-[Bis(2-methylpropyl)amino]propyl}piperazin-1-yl)propyl]-1,2,3,4-tetrahydroacridin-9-amine (Example 6, hereinafter named “Compound I⋅HCl”) which was diluted in the culture medium as described in Bretteville et al., 2009.
# For the western-blot analysis of Tau proteins, SDS-PAGE was performed according to the manufacturer's instructions using Bis-Tris 4-12% gradient acrylamide gel (NuPage® Bis-Tris PreCast 12 wells, Life Technologies). The apparent molecular weights were calibrated using the molecular weight markers (Novex and Magic Marks, Life Technologies). Electrophoresis was performed under a continuous tension of 100V/per gel for 1 h. […]
# as §2, §3
structure (smiles),measurement,setting,value
"CC(C)CN(CCCN1CCN(CCCNc2c3c(nc4ccccc24)CCCC3)CC1)CC(C)C [compound of Formula I, N-[3-(4-{3-[Bis(2-methylpropyl)amino]propyl}piperazin-1-yl)propyl]-1,2,3,4-tetrahydroacridin-9-amine]","Tau isovariants at the neutral pI, N- and C-terminal directed pan-Tau antibodies",[1],reduction
same,"Tau isovariants at the neutral pI, Tau396 phospho-dependent antibody (S396)",[1],reduction
same,Tau phosphorylation at serine 199,[2]; S199P antibody,reduced
same,Tau phosphorylation at serine 396,[2]; S396 antibody,reduced
same,Tau expression,[2]; pan-Tau antibodies,No significant change
